Experimental data taken from US20080226682A1, “Immunoactive Compositions for Improved Oral Delivery of Vaccines and Therapeutic Agents” (PerOs Systems Technologies, Inc., priority 2007, published 2008).
Where two headings read alike, the source gives them in different places.

Legend:
[1] = test system: LPS-induced NO generation in RAW264.7 cells; assay: LPS-induced NO generation in RAW264.7 cells (1 hour pretreatment with isoflavones or saponins); format: cell-based, murine
Procedure: In yet another exemplary embodiment, the ability of isoflavones to modulate the production of LPS-induced NO generation in RAW264.7 cells was investigated. […] Cells were incubated with isoflavones for 1 hour at 37±2° C.
Cells were incubated with saponins 1 hour at 37±2° C.

[2] = test system: LPS induced NO generation in RAW264.7 cells; assay: PUFA pretreatment, LPS induced NO generation in RAW264.7
salmon immune cells = settings: purified isoflavone
equine immune cells = settings: purified isoflavone
canine immune cells = settings: purified isoflavone
bovine immune cells = settings: purified isoflavone
swine immune cells = settings: purified isoflavone
[3] = test system: PHA induced IFN-gamma production in calf PBMC; assay: PHA induced IFN-gamma production in calf PBMC; format: cell-based; settings: PHA-E+L 1 ug/ml, 3 days, FIG. 9
Procedure: Calf PBMC were isolated as described in Example 3. […] After incubation, supernatants were sampled. Supernatants from identical treatment wells were combined and stored frozen at −18±5° C. until tested for IFN-gamma. Supernatant samples were tested for bovine IFN-gamma using a commercial kit (Thermo Scientific). Briefly, plates were coated overnight with capture antibody in carbonate coating buffer. […] Plates were washed and treated with streptavidin-HRP for 30 minutes at RT. Plates were washed and substrate was added for 20 minutes at RT in the dark. Following incubation, stop solution was added to each well, and plates were read at 450 nm (550 nm reference wavelength). Data was plotted as Stimulation Index (IFN-gamma concentration of sample treated with isoflavone divided by IFN-gamma concentration of sample treated with PHA only) vs. isoflavone concentration. Since isoflavones dilutions were made in DMSO, the DMSO carrier was tested at the corresponding concentrations to determine the carrier effect.

feline immune cells = settings: purified isoflavone
human immune cells = settings: purified isoflavone
trout immune cells = format: cell-based; settings: purified isoflavone
Excerpt: The pellet is suspended in RPMI medium.

shrimp immune cells = settings: purified isoflavone
[4] = Plasma pharmacokinetics of antibiotics (HPLC); format: in vivo, Coho salmon (Oncorhynchus kisutch); settings: for AUC, times higher in Formula 2 than same concentration in commercial feed: oral, same dose in both; for Cmax / Tmax / AUC(0-t): plasma; for AUC(0-t): read-out: AUC(0-120 h)
Procedure: In the first study, Coho salmon (n-70 fish/group) were treated with flumequine at a dose of 30 mg/kg incorporated in commercial feed or in formula F2. In the second study, fish were treated orally with florfenicol, antibiotic was given at 15 mg/kg incorporated in commercial feed or at 15 and 50 mg/kg in formula F2. In addition, florfenicol was also given via i.p. injection at 20 mg/kg. At predetermined time periods post-administration, blood samples were collected via the caudal vein according to routine procedures. Levels of antibiotics in plasma of fish were determined by high performance liquid chromatography (HPLC).

[5] = Blood glucose after oral administration of insulin; format: in vivo, CD1 mice; settings: FIG. 14
Procedure: Preparation of protease inhibitor extracts. Protease inhibitors (4.44 g beans and 0.56 g albumen) were homogenized in Tris-HCL buffer (pH 7.5). The mixture was divided in equal volumes, centrifuged (3500 RPM for 10 minutes) and supernatants were pooled together. Supernatant was then concentrated by centrifugation through 10K cut-off Millipore filter tubes.
Preparation of uptake-increasing agents solution. In a 15 ml falcon tube, 1 ml of carbonate-bicarbonate buffer (0.25 M, pH 9.5) was added to 45 mg of sodium deoxycholate and stirred until complete dissolution. In another 15 ml falcon tube, 7 ml of carbonate-bicarbonate buffer (0.25 M, pH 9.5) was added to 450 mg of EDTA and stirred until complete dissolution. Both solutions were then pooled together.
Final preparation of liquid formulation. […] The liquid formulation was then kept at 4° C. until use.
Experimental Design. Twenty four female CD1 mice of an average weight of 30 g were used in this study (see Table 14 for the identification of experimental groups). […]
CD1 mice were gavaged with insulin (200 U/kg) incorporated in a liquid composition (group A) and in water (group B). […] At determined time periods post-administration (see Table 13), blood samples were taken via the retroorbital sinus and blood glucose levels were measured individually for each animal using an Ascencia™ DEX-2 blood glucose meter kit.

[6] = po, 30 mg/kg, oral in Oralject ™ (F2)
[7] = po, 30 mg/kg, oral in commercial feed
[8] = po, 15 mg/kg, oral in Oralject ™ (F2)
[9] = po, 15 mg/kg, oral in commercial feed
[10] = po, 50 mg/kg, oral in Oralject ™ (F2)

## CC1(C)C[C@@H](O)[C@]2(C)CC[C@]3(C)C(=CC[C@@H]4[C@@]5(C)CC[C@H](O)[C@](C)(CO)[C@@H]5CC[C@]43C)[C@@H]2C1 [sapogenol B, Sapogenol B]
[1]; FIG. 11
  rank of inhibitory potency among saponins: most potent inhibitor
[1]; lowest concentrations, FIG. 11
  inhibition of LPS-induced NO production: Zero to minimal inhibition
[1]; saponins in DMSO, FIG. 11
  inhibitory effect on LPS-induced NO production: inhibited LPS-induced NO production

## CCCCC/C=C\C/C=C\CCCCCCCC(=O)O [LA, linoleic acid]
[2]; FIG. 8
  immunomodulatory activity: marginal to no immunomodulatory activity

## CCCCC/C=C\C/C=C\C/C=C\C/C=C\CCCC(=O)O [AA, arachidonic acid]
[2]; 24 hours pretreatment, LPS 1 μg/ml 8 hours
  concentration required to inhibit to a similar level (40%): 100 µM
[2]; FIG. 8
  immunomodulatory activity: marginal to no immunomodulatory activity

## CC/C=C\C/C=C\C/C=C\C/C=C\C/C=C\CCCCCC(=O)O [DPA, docosapentaenoic acid]
[2]; 1 μM PUFA, 24 hours pretreatment, LPS 1 μg/ml 8 hours
  inhibition (text: of proliferation; FIG. 8: of LPS induced NO production): 40%
[2]; FIG. 8
  fold more effective at inhibiting than the N-6 PUFA, AA: 10-100 fold

## COc1ccc(-c2coc3cc(O)cc(O)c3c2=O)cc1 [biochanin A, 5,7-dihydroxy 4′-methoxy isoflavone]
Salmon immune cells
  Cytokine Secretion Profile (determined by RT-PCR): IL-4
[1]; 25 μM, FIG. 10
  fold higher inhibitory activity compared to daidzein or genistein: approximately 10 fold
Equine immune cells
  Cytokine Secretion Profile (determined by RT-PCR): IL-10
Canine immune cells
  Cytokine Secretion Profile (determined by RT-PCR): IL-4, IL-10
Bovine immune cells
  Cytokine Secretion Profile (determined by RT-PCR): None
Swine immune cells
  Cytokine Secretion Profile (determined by RT-PCR): None
[3]; 1 μM isoflavone
  effect on stimulation indices (IFN-gamma) compared to DMSO control: pronounced increase
[3]; 100 μM isoflavone
  effect on stimulation indices (IFN-gamma) compared to DMSO control: inhibitory effect
Feline immune cells
  Cytokine Secretion Profile (determined by RT-PCR): IL-4, IL-10
Human immune cells
  Cytokine Secretion Profile (determined by RT-PCR): none
Trout immune cells
  Cytokine Secretion Profile (determined by RT-PCR): None
Shrimp immune cells
  Cytokine Secretion Profile (determined by RT-PCR): None

## O=c1c(-c2ccc(O)cc2)coc2cc(O)ccc12 [daidzein]
Salmon immune cells
  Cytokine Secretion Profile (determined by RT-PCR): IFN-gamma
Equine immune cells
  Cytokine Secretion Profile (determined by RT-PCR): None
Canine immune cells
  Cytokine Secretion Profile (determined by RT-PCR): None
Bovine immune cells
  Cytokine Secretion Profile (determined by RT-PCR): IL-10
Swine immune cells
  Cytokine Secretion Profile (determined by RT-PCR): None
[3]; 10 nM or 100 nM isoflavone
  effect on stimulation indices (IFN-gamma) compared to DMSO control: pronounced decrease
[3]; 1 μM isoflavone
  effect on stimulation indices (IFN-gamma) compared to DMSO control: pronounced increase
[3]; 100 μM isoflavone
  effect on stimulation indices (IFN-gamma) compared to DMSO control: inhibitory effect
Feline immune cells
  Cytokine Secretion Profile (determined by RT-PCR): IL-4
Human immune cells
  Cytokine Secretion Profile (determined by RT-PCR): IFN-gamma
Trout immune cells
  Cytokine Secretion Profile (determined by RT-PCR): IFN-gamma
Shrimp immune cells
  Cytokine Secretion Profile (determined by RT-PCR): IFN-gamma

## CC1CCc2cc(F)cc3c(=O)c(C(=O)O)cn1c23 (stereo not shown) [Flumequine]
[4]; 30 mg/kg oral, FIG. 17
  peak plasma concentration, fold higher via Formula 2 than with commercial feed: approximately 5 fold
[4]
  AUC, times higher in Formula 2 than same concentration in commercial feed: 3.7 times
[4]; [6]
  Cmax: 0.44 µg/mL
  Tmax: 2 h
[4]; po, 30 mg/kg, oral in Oralject ™ (F2), 30 mg/kg
  AUC(0-t): 61.9 µg·h/mL
[4]; [7]
  Cmax: 2.29 µg/mL
  Tmax: 8 h
[4]; po, 30 mg/kg, oral in commercial feed, 30 mg/kg
  AUC(0-t): 16.8 µg·h/mL

## insulin: Human recombinant insulin (Sigma, #I2643)
[5]; 200 U/kg oral gavage in liquid composition (Formula 2)
  effect on blood glucose levels: markedly reduced blood glucose levels
[5]; 200 U/kg oral gavage in water
  effect on blood glucose levels: no efficacy in reducing glucose levels

## O=c1c(-c2ccc(O)cc2)coc2cc(O)cc(O)c12 [genistein, 4′5,7-trihydroxyisoflavone]
Salmon immune cells
  Cytokine Secretion Profile (determined by RT-PCR): IL-10
Equine immune cells
  Cytokine Secretion Profile (determined by RT-PCR): None
Canine immune cells
  Cytokine Secretion Profile (determined by RT-PCR): None
Bovine immune cells
  Cytokine Secretion Profile (determined by RT-PCR): IL-10
Swine immune cells
  Cytokine Secretion Profile (determined by RT-PCR): IL-4
[3]; 10 nM or 100 nM isoflavone
  effect on stimulation indices (IFN-gamma) compared to DMSO control: pronounced decrease
[3]; 1 μM isoflavone
  effect on stimulation indices (IFN-gamma) compared to DMSO control: pronounced increase
[3]; 100 μM isoflavone
  effect on stimulation indices (IFN-gamma) compared to DMSO control: no effect
Feline immune cells
  Cytokine Secretion Profile (determined by RT-PCR): None
Human immune cells
  Cytokine Secretion Profile (determined by RT-PCR): IL-10
Trout immune cells
  Cytokine Secretion Profile (determined by RT-PCR): IL-4, IL-10
Shrimp immune cells
  Cytokine Secretion Profile (determined by RT-PCR): None

## CS(=O)(=O)c1ccc([C@@H](O)[C@@H](CF)NC(=O)C(Cl)Cl)cc1 [Florfenicol]
[4]
  AUC, times higher in Formula 2 than same concentration in commercial feed: 5.2 times
[4]; ip, 20 mg/kg, i.p. injection
  Cmax: 7.05 µg/mL
  Tmax: 4 h
[4]; ip, 20 mg/kg, i.p. injection, 20 mg/kg
  AUC(0-t): 196 µg·h/mL
[4]; [8]
  Cmax: 2.15 µg/mL
  Tmax: 16 h
[4]; po, 15 mg/kg, oral in Oralject ™ (F2), 15 mg/kg
  AUC(0-t): 34.4 µg·h/mL
[4]; [9]
  Cmax: 1.38 µg/mL
  Tmax: 8 h
[4]; po, 15 mg/kg, oral in commercial feed, 15 mg/kg
  AUC(0-t): 6.7 µg·h/mL
[4]; [10]
  Cmax: 7.96 µg/mL
  Tmax: 6 h
[4]; po, 50 mg/kg, oral in Oralject ™ (F2), 50 mg/kg
  AUC(0-t): 136 µg·h/mL
